Each block holds one molecule with its values, some of them ahead of it.
What was measured:
PABP1(437–488) = PABP1(437–488) (Homo sapiens, UniProt P11940); assay: SPR binding to immobilized PABP1; details: compounds injected at 50–10000 nM
calf thymus histone H3 = assay: SPR binding to immobilized histone H3; details: compounds injected at 50–10000 nM
[1] = biological target: human recombinant PRMT1 (hPRMT1) (Homo sapiens, UniProt Q99873); assay: PRMT1 in vitro inhibition assay, Npl3 as substrate; details: fixed doses of 10 µM and 50 µM
Sequence of human recombinant PRMT1 (hPRMT1) (Q99873 whole entry): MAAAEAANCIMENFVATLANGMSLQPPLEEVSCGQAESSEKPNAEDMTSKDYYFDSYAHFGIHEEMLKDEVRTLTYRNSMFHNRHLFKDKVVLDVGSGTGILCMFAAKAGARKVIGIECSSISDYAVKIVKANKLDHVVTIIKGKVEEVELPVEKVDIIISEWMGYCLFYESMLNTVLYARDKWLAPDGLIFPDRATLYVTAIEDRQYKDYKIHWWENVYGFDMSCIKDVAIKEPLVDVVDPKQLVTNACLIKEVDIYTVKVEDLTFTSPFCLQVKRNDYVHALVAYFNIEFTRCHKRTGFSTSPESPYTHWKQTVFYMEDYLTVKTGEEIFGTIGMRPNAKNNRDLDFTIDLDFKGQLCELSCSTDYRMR

CARM1 = biological target: T1, CARM1 (Mus musculus, UniProt Q9WVG6); assay: SPR binding to immobilized full length GST-tagged CARM1; details: for Effect on affinity of substrate (H3 or PABP1) for CARM1/SAH complex: 4 µM compound, 200 µM SAH; for Interaction with immobilized CARM1 (in words): 50–10000 nM, in the presence and in absence of SAH
T1 sequence (Q9WVG6 1-608): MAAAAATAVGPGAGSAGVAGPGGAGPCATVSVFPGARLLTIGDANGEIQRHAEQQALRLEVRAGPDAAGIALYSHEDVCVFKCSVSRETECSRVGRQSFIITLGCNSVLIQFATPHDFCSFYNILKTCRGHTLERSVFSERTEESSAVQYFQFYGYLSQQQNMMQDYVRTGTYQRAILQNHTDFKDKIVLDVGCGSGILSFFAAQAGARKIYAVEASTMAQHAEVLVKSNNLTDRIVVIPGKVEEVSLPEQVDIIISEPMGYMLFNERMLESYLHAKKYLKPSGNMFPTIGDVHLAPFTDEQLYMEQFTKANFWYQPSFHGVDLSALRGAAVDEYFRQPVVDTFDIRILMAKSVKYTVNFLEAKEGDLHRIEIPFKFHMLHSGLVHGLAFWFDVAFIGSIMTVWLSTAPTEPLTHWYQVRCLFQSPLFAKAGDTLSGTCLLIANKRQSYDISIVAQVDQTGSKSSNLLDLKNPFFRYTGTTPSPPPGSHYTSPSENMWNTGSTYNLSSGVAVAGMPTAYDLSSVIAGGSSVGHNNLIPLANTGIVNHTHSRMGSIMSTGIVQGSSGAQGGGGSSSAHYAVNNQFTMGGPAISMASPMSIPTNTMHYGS

CARM1/PRMT4 [2] = biological target: T2, CARM1/PRMT4 (Mus musculus, UniProt Q9WVG6); assay: CARM1 in vitro methylation assay, histone H3 as substrate; assay type: biochemical; details: 50 µM
T2 sequence (Q9WVG6 1-608): T1 sequence (Q9WVG6 1-608)

CARM1/PRMT4 [3] = biological target: T2, CARM1/PRMT4; assay: CARM1 in vitro methylation assay, PABP1 as substrate; assay type: biochemical; details: 3, 6, 12, 25, 50 and 100 µM
[4] = test system: CARM1 (fPABP1 methylation) in HEK293 cells; assay: Cellular methylation assay, Tet-inducible fPABP1 in HEK293 cells; assay type: cell-based, human; details: HEK293, Tet-induced fPABP1; 50 µM compound; 24 h; anti-methyl-PABP1 immunoblot
[5] = biological target: T3, full length GST-tagged CARM1 (UniProt Q9WVG6 1-608); assay: SPR
T3 sequence (looked up): T1 sequence (Q9WVG6 1-608)

Molecule: O=C(Nc1ccc2c(O)cc(S(=O)(=O)O)cc2c1)Nc1ccc2c(O)cc(S(=O)(=O)O)cc2c1 [AMI-1, reference compound]
Interaction with immobilized PABP1(437–488) (in words) (PABP1(437–488)): barely perceptible

Molecule: CCOC(=O)c1cc2cc(NC(=O)CNC(=O)Nc3ccc([N+](=O)[O-])cc3)ccc2[nH]1 [1k, ethyl 5-(2-(3-(4-nitrophenyl)ureido)acetamido)-1H-indole-2-carboxylate]
Interaction with immobilized histone H3 (in words) (calf thymus histone H3): no interaction | Inhibition of PRMT1 [1]: scarcely active | Effect on affinity of substrate (H3 or PABP1) for CARM1/SAH complex (CARM1): affects the affinity | Interaction with immobilized CARM1 (in words) (CARM1): no interaction | Effect on CARM1-catalyzed H3 methylation (in words) (CARM1/PRMT4 [2]): marked activation | Interaction with immobilized PABP1(437–488) (in words) (PABP1(437–488)): no interaction | Effect on CARM1 enzyme activity, dose dependence (CARM1/PRMT4 [3]): marked and dose-dependent increase

Molecule: CCOC(=O)c1cc2cc(NC(=O)CNC(=O)Nc3ccc(C#N)cc3)ccc2[nH]1 [3g, ethyl 5-(2-(3-(4-cyanophenyl)ureido)acetamido)-1H-indole-2-carboxylate]
Interaction with immobilized histone H3 (in words) (calf thymus histone H3): no interaction | Effect on affinity of substrate (H3 or PABP1) for CARM1/SAH complex (CARM1): affects the affinity | Interaction with immobilized CARM1 (in words) (CARM1): no interaction | Interaction with immobilized PABP1(437–488) (in words) (PABP1(437–488)): no interaction | Methylation of fPABP1 in cells [4]: strongly increase the methylation

Molecule: CCOC(=O)c1cc2cc(NC(=O)CNC(=O)Nc3ccc(C)cc3)ccc2[nH]1 [3c, ethyl 5-(2-(3-(p-tolyl)ureido)acetamido)-1H-indole-2-carboxylate]
Interaction with immobilized histone H3 (in words) (calf thymus histone H3): no interaction | Effect on affinity of substrate (H3 or PABP1) for CARM1/SAH complex (CARM1): significantly affect the affinity | Interaction with immobilized CARM1 (in words) (CARM1): no interaction | Interaction with immobilized PABP1(437–488) (in words) (PABP1(437–488)): no interaction | Methylation of fPABP1 in cells [4]: strongly increase the methylation

More lines, main results first:

Effect on affinity of substrate (H3 or PABP1) for CARM1/SAH complex (CARM1): significantly affect the affinity | Interaction with immobilized CARM1 (in words) (CARM1): no interaction | Interaction with immobilized PABP1(437–488) (in words) (PABP1(437–488)): no interaction
Molecule: COC(=O)c1c[nH]c2ccc(NC(=O)CNC(=O)Nc3ccc(OC)cc3)cc12 [4e, methyl 5-(2-(3-(4-methoxyphenyl)ureido)acetamido)-1H-indole-3-carboxylate]
Interaction with immobilized histone H3 (in words) (calf thymus histone H3): no interaction

Interaction with immobilized PABP1(437–488) (in words) (PABP1(437–488)): barely perceptible
Molecule: O=c1oc2c(O)c(O)cc3c(=O)oc4c(O)c(O)cc1c4c23 [ellagic acid, reference compound]

Kd [5]: 158 nM
B1: PABP1(437–488) (domain or fragment, human, UniProt P11940 437-488, looked up)
chain: WTAQGARPHPFQNMPGAIRPAAPRPPFSTMRPASSQVPRVMSTQRVANTSTQ
